Assay results from PMC9887599, “Synthesis, Optical Properties, and Antiproliferative Evaluation of NBD-Triterpene Fluorescent Probes” (Journal of Natural Products, 2022).

Experiments:
B16-F10 murine melanoma = experiment: MTT cell-viability assay, B16-F10; type: cell-based; details: Mus musculus, 72 h, untreated control cells as 100% viability
Description: (§1) The cytotoxic effects of 12 NBD-Aa-triterpene conjugates (1–12) were tested on three different cancer cell lines as a representation of cancers from different tissues and organs (B16-F10 murine melanoma, HT-29 human colon adenocarcinoma, and HepG2 human hepatocyte carcinoma). Cell viability was determined by MTT colorimetric analysis, with increasing concentration levels of each compound (0–200 μg/mL) and incubation for 72 h. The MTT assay was based on the metabolic reduction of 3-(4,5-dimethylthiazol-2-yl)-2,5-diphenyltetrazolium bromide (MTT) to a violet-colored compound (formazan), with a maximum absorbance at 570 nm. Cell viability was proportional to the amount of formazan and was expressed as the percentage of viable treated cells relative to untreated control cells. The concentration at which the derivatives halved the number of viable cells in the three cancer lines (IC50) was determined. […] These NBD conjugates of BO or BM also had higher IC50 values than their precursors (BO or BM), even in NBD conjugates with the shortest-chain ω-amino acid linker (6AHA) (Table 2). Due to these high IC50 values, all of these NBD-conjugated compounds were discarded for further cytometric studies.
(§2) The effect of the synthesized compounds on the viability of tumor cells was assessed using the MTT assay, based on the ability of living cells to metabolically reduce 3-(4,5-dimethylthiazole)-2,5-diphenyltetrazole bromide, rendering formazan, a colored compound with a maximum absorbance of 570 nm. To study the cytotoxic effects of the compounds in the three cancer cell lines, the different lines were seeded in 96-well plates at a cell density per well of 5 × 10^3 for B16-F10, 6 × 10^3 for HT-29, and 15 × 10^3 for HepG2. After seeding, the plates were grown for 24 h and subsequently treated in triplicate with different compounds at different concentrations (0–200 μg/mL) for 72 h. After this time, the cells were stained by adding 100 mL of MTT (0.5 mg/mL) per well and incubated for 1 h. Subsequently, the cells were washed with phosphate-buffered saline (PBS), and formazan was resuspended in 100 μL of DMSO per well. Cell viability was measured by absorbance at 550 nm in an ELISA plate reader (Tecan Sunrise MR20–301, TECAN, Austria).
(§3) For this, Sigmaplot 12.5 software was used, and all quantitative data were expressed as means ± standard deviation (SD). All data shown are representative of at least two independent experiments performed in triplicate.

[1] = system: HT-29 human colon adenocarcinoma; experiment: MTT cell-viability assay, HT-29; type: cell-based; details: 72 h, untreated control cells as 100% viability
Description: as §1, §2, §3

[2] = system: HepG2 human hepatocyte carcinoma; experiment: MTT cell-viability assay, HepG2; type: cell-based; details: 72 h, untreated control cells as 100% viability
Description: as §1, §2, §3

[3] = system: HPF human pulmonary fibroblasts; experiment: MTT cytotoxicity on nontumor cells, HPF; type: cell-based; details: for IC50: Homo sapiens, Pulmonary fibroblast, MTT assay, nontumor cells; for SI (selectivity index, IC50 nontumor cells/IC50 cancer cells), HPF: column beside HPF
Description: (§4) Due to their greater cytotoxic activity, NBD conjugates 1 and 2 were selected to analyze their cytotoxic effects on healthy cells, using nontumor cell lines (HPF human pulmonary fibroblasts, IEC-18 epithelial rat ileum cells, and WRL68 human embryonic hepatic cells) (Table 3). The selectivity indices (SI) of the NBD-Aa-triterpene conjugates 1 and 2 were calculated with the formula: IC50 nontumor cells/IC50 cancer cells. Additionally, cell-viability percentages in the nontumor cells were measured, which ranged in most cases between 75 and 90%.
as §2, §3

[4] = system: IEC-18 epithelial rat ileum cells; experiment: MTT cytotoxicity on nontumor cells, IEC-18; type: cell-based; details: for IC50: Rattus norvegicus, IEC-18, MTT assay, nontumor cells; for SI (selectivity index, IC50 nontumor cells/IC50 cancer cells), IEC-18: column beside IEC-18
Description: as §4, §2, §3

[5] = system: WRL68 human embryonic hepatic cells; experiment: MTT cytotoxicity on nontumor cells, WRL68; type: cell-based; details: for IC50: Homo sapiens, WRL68, MTT assay, nontumor cells; for SI (selectivity index, IC50 nontumor cells/IC50 cancer cells), WRL68: column beside WRL68
Description: as §4, §2, §3

B16-F10 cells = experiment: Annexin V/propidium iodide flow cytometry of cell death, B16-F10; type: cell-based, mouse; details: B16-F10, at IC50 concentration, after 72 h
Description: (§5) NBD-6AHA-triterpene conjugates 1 and 2 were selected for the characterization of their cytotoxic effects on the three cancer cell lines used. The percentages of cell death were determined using the concentrations corresponding to the IC50 values for each compound in the three cancer cell lines (B16-F10, HT-29, and HepG2). This study was conducted by flow cytometry, using double staining with DY634 annexin V/propidium iodide, which allows the identification and quantification of intact, apoptotic, or necrotic cells. Annexin DY634 (red fluorescence) is an apoptotic marker due to its ability to bind to phosphatidylserine exposed on the external cell surface. Propidium iodide (orange fluorescence) is a DNA marker that is capable of penetrating only when the cell is damaged, differentiating late apoptotic or necrotic cells from apoptotic ones. These conjugates (1 and 2) are green fluorescent probes, not causing interference in the fluorescence.
(§6) The apoptosis studies were conducted at 4, 24, and 72 h (Figure 5).
(§7) Cell death (apoptosis) was studied by flow cytometry using a FACScan (fluorescence-activated cell sorter) flow cytometer (Coulter Corporation, Hialeah, FL). […] In each experiment, approximately 10 × 10^3 cells were analyzed, and the experiment was duplicated twice.

HT-29 cells = experiment: Annexin V/propidium iodide flow cytometry of cell death, HT-29; type: cell-based, human; details: HT-29, at IC50 concentration, after 72 h
Description: as §5, §6, §7

HepG2 cells = experiment: Annexin V/propidium iodide flow cytometry of cell death, HepG2; type: cell-based, human; details: HepG2, at IC50 concentration, after 72 h
Description: as §5, §6, §7

[6] = Cell-viability percentages in nontumor cells, summary; type: cell-based; details: human, rat; in most cases
Description: as §4
as §2, with “After this time, the cells were stained by adding 100 mL of MTT (0.5 mg/mL) per well and incubated for 1 h. Subsequently, the cells were washed with phosphate-buffered saline (PBS), and formazan was resuspended in 100 μL of DMSO per well.” left out

[7] = Absorption and fluorescence spectroscopy (photophysical data); type: physicochemical; details: DMSO, 25 °C; for τ (half-life time of fluorescence): 485 nm pulsed LED; for Φ (fluorescence quantum yield): Coumarin 6 as standard; for (λem)max: excitation at 480 nm
[8] = set-up: method as in PMID 26512635; details: ethanol solution ref 45; cited from earlier work

| Structure (SMILES) | IC50 (B16-F10 murine melanoma) | IC50 [1] | IC50 [2] | IC50 [3] | SI (selectivity index, IC50 nontumor cells/IC50 cancer cells), HPF [3] | IC50 [4] | SI (selectivity index, IC50 nontumor cells/IC50 cancer cells), IEC-18 [4] | IC50 [5] | SI (selectivity index, IC50 nontumor cells/IC50 cancer cells), WRL68 [5] | percentage of apoptosis (B16-F10 cells) | percentage of apoptosis (HT-29 cells) | percentage of apoptosis (HepG2 cells) | viability at 72 h [6] | (λabs)max [7] | ε (molar extinction coefficient) [7] | τ (half-life time of fluorescence) [7] | Φ (fluorescence quantum yield) [7] | (λem)max [7] | ΦF of the standard sample [8] |
| --- | --- | --- | --- | --- | --- | --- | --- | --- | --- | --- | --- | --- | --- | --- | --- | --- | --- | --- | --- |
| CC1(C)CC[C@]2(C(=O)O)CC[C@]3(C)C(=CC[C@@H]4[C@@]5(C)C[C@@H](OC(=O)CCCCCNc6ccc([N+](=O)[O-])c7nonc67)[C@H](O)C(C)(C)[C@@H]5CC[C@]43C)[C@@H]2C1 [Compound 2, 3β-Hydroxy-2α-((6-((7-nitrobenzo[c][1,2,5]oxadiazol-4-yl)amino)hexanoyl)oxy)olean-12-en-28-oic Acid] | 4.9 ± 0.4 µM | 6.6 ± 0.1 µM | 13.9 ± 0.6 µM | 14.8 ± 1.5 µM | 3 | 14.7 ± 0.7 µM | 2 | 10 ± 0.3 µM | 1 | 48% | 55% | 53% | 75 to 90% | 480 nm | 3166 M^–1 cm^–1 | 7.681 ns | 0.71 | 546 nm | – |
| CCN(CC)c1ccc2cc(-c3nc4ccccc4s3)c(=O)oc2c1 [Coumarin 6] | – | – | – | – | – | – | – | – | – | – | – | – | – | – | – | – | – | – | 0.78 |
| CC1(C)CC[C@]2(C(=O)O)CC[C@]3(C)C(=CC[C@@H]4[C@@]5(C)CC[C@H](OC(=O)CCCCCNc6ccc([N+](=O)[O-])c7nonc67)C(C)(C)[C@@H]5CC[C@]43C)[C@@H]2C1 [Compound 1, 3β-((6-((7-Nitrobenzo[c][1,2,5]oxadiazol-4-yl)amino)hexanoyl)oxy)olean-12-en-28-oic Acid] | 2.4 ± 0.1 µM | 19.5 ± 0.1 µM | 12.5 ± 0.1 µM | 39.7 ± 1.2 µM | 17 | 41 ± 0.3 µM | 2 | 37.9 ± 0.2 µM | 3 | – | – | – | 75 to 90% | – | 2539 M^–1 cm^–1 | 7.712 ns | 0.76 | 546 nm | – |
